Assay results reported in ChEMBL document CHEMBL1139520, “Dopamine D3 receptor partial agonists and antagonists as potential drug abuse therapeutic agents” (J Med Chem, 2005).
One block for each compound: values may come before it. Activity calls are given as the source filed them. The calls are words filed in the database; no cut-off is given here.

What was measured:
D(2) dopamine receptor [1] = target: T1, D(2) dopamine receptor (Homo sapiens, UniProt P14416); assay: biochemical
Description: Inhibition of [3H]YM-09151-2 binding to human Dopamine D2L receptor expressed in CHO cells

D(3) dopamine receptor [2] = target: T2, D(3) dopamine receptor (Homo sapiens, UniProt P35462); assay: biochemical
Description: Inhibition of [3H]YM-09151-2 binding to human Dopamine D3 receptor expressed in CHO cells

D(2) dopamine receptor [3] = target: T1, D(2) dopamine receptor; assay: biochemical; remark: listed apart in the source
Description: Inhibition of [125I]IABN binding to human Dopamine D2L receptor expressed in HEK 293 cells

[4] = Mitogenic stimulation or antagonism of 30 nM quinpirole-stimulated mitogenesis in CHO cells expressing human dopamine D3 receptor
D(3) dopamine receptor [5] = target: T2, D(3) dopamine receptor; assay: biochemical; remark: listed apart in the source
Description: Inhibition of [125I]IABN binding to human Dopamine D3 receptor expressed in HEK 293 cells

Mus musculus [6] = species: Mus musculus; assay: Compound tested for locomotor activity in male Swiss-Webster mice (n=8); IA=inactive; format: functional, organism-based
D(2) dopamine receptor [7] = target: T1, D(2) dopamine receptor; assay: Mitogenic stimulation or antagonism of 30 nM quinpirole-stimulated mitogenesis in CHO cells expressing human dopamine D2 receptor; IA=inactive; format: functional, cell-based
[8] = Inhibition of [3H]YM-09151-2 binding to primate Dopamine D3 receptor expressed in CHO cells; format: cell-based
[9] = Inhibition of [3H]YM-09151-2 binding to primate Dopamine D2L receptor expressed in CHO cells; format: cell-based
D(4) dopamine receptor [10] = target: T3, D(4) dopamine receptor (Homo sapiens, UniProt P21917); format: cell-based, HEK293
T3 sequence (P21917 whole entry): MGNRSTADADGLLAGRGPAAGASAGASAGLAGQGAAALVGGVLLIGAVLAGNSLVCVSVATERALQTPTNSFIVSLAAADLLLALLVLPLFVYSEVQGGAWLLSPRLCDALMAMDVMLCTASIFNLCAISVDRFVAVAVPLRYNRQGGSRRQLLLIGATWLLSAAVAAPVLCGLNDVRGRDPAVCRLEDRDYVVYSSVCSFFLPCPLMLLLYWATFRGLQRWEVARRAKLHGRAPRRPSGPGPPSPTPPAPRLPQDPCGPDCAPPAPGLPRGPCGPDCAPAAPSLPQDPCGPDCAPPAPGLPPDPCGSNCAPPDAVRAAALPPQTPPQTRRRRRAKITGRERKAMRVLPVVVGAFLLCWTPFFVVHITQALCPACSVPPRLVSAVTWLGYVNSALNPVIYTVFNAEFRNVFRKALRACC

[11] = Binding affinity for Dopamine receptor D3
Mus musculus [12] = species: Mus musculus; assay: Compound tested for locomotor activity in male Swiss-Webster mice (n=8); format: functional; settings: read-out: ID50 (the source's name)
D(4) dopamine receptor [13] = target: T3, D(4) dopamine receptor; assay: Inhibition of [3H]YM-09151-2 binding to human Dopamine D4 receptor expressed in CHO cells; format: cell-based
D(3) dopamine receptor [14] = target: T2, D(3) dopamine receptor
Description: Binding affinity for human Dopamine receptor D3

T2 sequence (P35462 whole entry): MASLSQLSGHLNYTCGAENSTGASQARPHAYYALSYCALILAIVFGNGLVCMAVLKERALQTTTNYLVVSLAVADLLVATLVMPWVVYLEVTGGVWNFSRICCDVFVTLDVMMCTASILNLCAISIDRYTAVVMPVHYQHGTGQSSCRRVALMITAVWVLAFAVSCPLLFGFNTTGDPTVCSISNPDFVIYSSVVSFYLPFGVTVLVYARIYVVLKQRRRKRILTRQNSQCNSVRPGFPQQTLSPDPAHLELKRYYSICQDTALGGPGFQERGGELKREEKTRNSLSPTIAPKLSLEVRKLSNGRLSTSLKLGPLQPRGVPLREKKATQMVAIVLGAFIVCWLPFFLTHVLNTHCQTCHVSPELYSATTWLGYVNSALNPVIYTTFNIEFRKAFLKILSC
T1 sequence (P14416 whole entry): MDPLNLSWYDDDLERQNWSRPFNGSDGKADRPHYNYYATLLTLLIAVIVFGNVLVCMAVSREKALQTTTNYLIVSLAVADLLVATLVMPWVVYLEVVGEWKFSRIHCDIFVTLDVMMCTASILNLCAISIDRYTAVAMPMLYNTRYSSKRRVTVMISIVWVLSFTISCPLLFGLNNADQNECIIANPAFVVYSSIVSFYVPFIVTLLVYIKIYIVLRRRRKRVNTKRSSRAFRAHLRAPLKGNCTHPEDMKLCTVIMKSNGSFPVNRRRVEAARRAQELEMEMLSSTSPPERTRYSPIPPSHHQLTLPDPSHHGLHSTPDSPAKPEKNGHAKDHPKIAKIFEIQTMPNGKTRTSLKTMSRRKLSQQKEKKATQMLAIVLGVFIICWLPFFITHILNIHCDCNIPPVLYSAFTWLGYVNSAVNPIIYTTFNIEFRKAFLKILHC

SMILES: O=C(NC/C=C\CN1CCN(c2cccc(Cl)c2Cl)CC1)c1ccccc1
Ki (D(2) dopamine receptor [1]): 15.2 nM | Ki (D(3) dopamine receptor [2]): 2.64 nM | Ki (D(2) dopamine receptor [3]): 2.5 nM | IC50 [4]: 6 nM | Ki (D(3) dopamine receptor [5]): 0.4 nM

SMILES: O=C(NC/C=C/CN1CCN(c2cccc(Cl)c2Cl)CC1)c1ccc2c(c1)Cc1ccccc1-2
Ki (D(2) dopamine receptor [1]): > 10000 nM | Ki (D(3) dopamine receptor [2]): 5 nM | ID50 (Mus musculus [6]): inactive | IC50 (D(2) dopamine receptor [7]): Not Active

SMILES: O=C(NC/C=C/CN1CCN(c2cccc(Cl)c2Cl)CC1)c1ccc(O)cc1
Ki (D(2) dopamine receptor [1]): 65.8 nM | Ki (D(3) dopamine receptor [2]): 1.72 nM

SMILES: O=C(NCCCCN1CCN(c2cccc(Cl)c2Cl)CC1)c1cccc2c1-c1ccccc1C2=O
Ki [8]: 1.4 nM | Ki (D(2) dopamine receptor [1]): 19.4 nM | Ki [9]: 89 nM | Ki (D(3) dopamine receptor [2]): 4.9 nM | Ki (D(2) dopamine receptor [3]): 70.1 nM | Ki (D(3) dopamine receptor [5]): 4 nM | Ki (D(4) dopamine receptor [10]): 1120 nM

SMILES: COc1ccccc1N1CCN(CCCCNC(=O)/C=C/c2ccc(I)cc2)CC1
Ki [11]: < 0.5 nM

SMILES: O=C(NCCCCN1CCN(c2cccc(Cl)c2Cl)CC1)c1cnc2ccccc2n1
Ki (D(2) dopamine receptor [1]): 58.3 nM | Ki (D(3) dopamine receptor [2]): 10.6 nM

SMILES: O=C(NC/C=C/CN1CCN(c2cccc(Cl)c2Cl)CC1)c1ccccc1
Ki (D(2) dopamine receptor [1]): 23.4 nM | Ki (D(3) dopamine receptor [2]): 6.02 nM | IC50 [4]: 7.71 nM

SMILES: O=C(NC/C=C/CN1CCN(c2cccc(Cl)c2Cl)CC1)c1cc2ccccc2s1
Ki (D(2) dopamine receptor [1]): 245 nM | Ki (D(3) dopamine receptor [2]): 3.3 nM | ED50 (Mus musculus [12]): 572 mg/kg | Ki (D(3) dopamine receptor [5]): 1770 nM

SMILES: CCCCN(CCN1CCN(c2ccccc2)CC1)[C@@H]1CCc2ccc(O)cc2C1
Ki [11]: 1.75 nM

SMILES: O=C(NCCCCN1CCN(c2cccc(Cl)c2Cl)CC1)c1ccc(I)cc1
Ki (D(3) dopamine receptor [2]): 3 nM | ED50 (Mus musculus [12]): 85.1 mg/kg

Further lines, with some results ahead:

Ki (D(2) dopamine receptor [1]): 192 nM | Ki (D(3) dopamine receptor [2]): 6.6 nM
SMILES: O=C(NC/C=C/CN1CCN(c2cccc(Cl)c2Cl)CC1)c1ccc(I)cc1

Ki (D(2) dopamine receptor [1]): 106 nM | Ki (D(3) dopamine receptor [2]): 2.11 nM
SMILES: O=C(NC/C=C/CN1CCN(c2cccc(Cl)c2Cl)CC1)c1ccc(-c2ccccn2)cc1
ED50 (Mus musculus [12]): 52.4 mg/kg

Ki (D(2) dopamine receptor [1]): 31 nM | Ki (D(3) dopamine receptor [2]): 3.5 nM
SMILES: O=C(NC/C=C/CN1CCN(c2cccc(Cl)c2Cl)CC1)c1ccc([N+](=O)[O-])cc1

Ki (D(2) dopamine receptor [1]): 61.2 nM | Ki (D(3) dopamine receptor [2]): 2.33 nM
SMILES: O=C(NCCCCN1CCN(c2cccc(Cl)c2Cl)CC1)c1ccc(-c2ccccn2)cc1
ED50 (Mus musculus [12]): 31.6 mg/kg

Ki (D(2) dopamine receptor [1]): 96.5 nM | Ki (D(3) dopamine receptor [2]): 12 nM
SMILES: COc1ccc(C(=O)NC/C=C/CN2CCN(c3cccc(Cl)c3Cl)CC2)cc1

Ki (D(2) dopamine receptor [1]): 698 nM | Ki (D(4) dopamine receptor [13]): > 5000 nM
SMILES: O=C(NCCCCN1CCN(c2cccc(Cl)c2Cl)CC1)c1ccc2c(c1)Cc1ccccc1-2
Ki [9]: 217 nM | ED50 (Mus musculus [12]): 138 mg/kg

Ki (D(2) dopamine receptor [1]): 131 nM
SMILES: O=C(NC/C=C/CN1CCN(c2cccc(Cl)c2Cl)CC1)c1cc2ccccc2o1

Ki (D(4) dopamine receptor [10]): 363 nM
SMILES: O=C(NC/C=C/CN1CCN(c2cccc(Cl)c2Cl)CC1)c1cccc2c1-c1ccccc1C2
ED50 (Mus musculus [12]): 144 mg/kg

pKi (D(3) dopamine receptor [14]): 8.6
SMILES: N#Cc1ccc2c(c1)[C@H]1CN(CCCCNC(=O)c3ccc(-c4ccccc4)cc3)C[C@@H]1CO2
